In patent publication US20140051679A1, “KINASE INHIBITORS AND METHOD OF TREATING CANCER WITH SAME” (UNIVERISTY HEALTH NETWORKS, priority 2011, published 2014):

Columns and labels:
[1] = system: Ovarian TICs, 2393A ovarian; assay: Ovarian tumor-initiating cell growth inhibition (Alamar Blue); assay type: cell-based; settings: 144 h, 6 days, read-out: GI50 range 2393A ovarian
[2] = system: OVCAR-3 ovarian cancer cells; assay: Cell growth inhibition, Sulforhodamine B assay, OVCAR-3; assay type: cell-based; settings: Homo sapiens, 120 h, 5 days culture, SRB assay, read-out: Cell Line GI50 Range OVCAR-3
[3] = system: MDA-MB-468 breast cancer cells; assay: Cell growth inhibition, Sulforhodamine B assay, MDA-MB-468; assay type: cell-based; settings: Homo sapiens, 120 h, 5 days culture, SRB assay, read-out: Cell Line GI50 Range MDA-MB-468
Procedure: (§1) Breast cancer cells (MDA-MB-231, MDA-MB-468), colon cancer cells (HCT116, HT29) and ovarian cancer cells (PA-1, OVCAR-3) were seeded (1000 to 4000 in 80 μl per well depending on the cell growth rate) into 96 well plates 24 hours before compound overlay. Compounds were prepared as 10 mM stock solutions in 100% DMSO which were diluted with DMEM (Dulbecco's Modified Eagle's Medium) cell growth Medium (Invitrogen, Burlington, ON, Canada) containing 10% FBS (Fetal Bovine Serum) to concentrations ranging from 50 nM to 250 μM. Aliquots (20 μl) from each concentration were overlaid to 80 μl of the pre-seeded cells in the 96 well plates to make final concentrations of 10 nM to 50 μM. The cells were cultured for 5 days before the Sulforhodamine B assay (SRB) was performed to determine the compound's cell growth inhibition activity.
(§2) Sulforhodamine B (purchased from Sigma, Oakville, ON, Canada) is a water-soluble dye that binds to the basic amino acids of the cellular proteins. Thus, colorimetric measurement of the bound dye provides an estimate of the total protein mass that is related to the cell number. the cells are fixed in situ by gently aspirating off the culture media and adding 50 μl ice cold 10% Trichloroacetic Acid (TCA) per well and incubate at 4° C. for 30-60 min, The plates are washed with water five times and allowed to air dry for 5 min. Addition of 50 μl 0.4% (w/v) SRB solution in 1% (v/v) acetic acid to each well and incubatation for 30 min at RT completes the staining reaction. Following staining, plates are washed four times with 1% acetic acid to remove unbound dye and then allowed to air dry for 5 min. The stain is solubilized with 100 μl of 10 mM Tris pH 10.5 per well. Absorbance is read at 570 nm.
(§3) The percentage (%) of relative growth inhibition was calculated by comparing to DMSO treated only cells (100%). […] The GI50 was calculated using GraphPad PRISM software (GraphPad Software, Inc., San Diego, Calif., USA).

human TTK = target: T1, human TTK (Homo sapiens, UniProt P33981); assay: TTK inhibition assay (indirect ELISA); assay type: biochemical; settings: GST-TTK 0.68 nM, 16 μM ATP; read-out: IC50 Ranges TTK
T1 construct: amino terminal GST fusion of full length human TTK; purchased Invitrogen
T1 sequence (P33981 1-857): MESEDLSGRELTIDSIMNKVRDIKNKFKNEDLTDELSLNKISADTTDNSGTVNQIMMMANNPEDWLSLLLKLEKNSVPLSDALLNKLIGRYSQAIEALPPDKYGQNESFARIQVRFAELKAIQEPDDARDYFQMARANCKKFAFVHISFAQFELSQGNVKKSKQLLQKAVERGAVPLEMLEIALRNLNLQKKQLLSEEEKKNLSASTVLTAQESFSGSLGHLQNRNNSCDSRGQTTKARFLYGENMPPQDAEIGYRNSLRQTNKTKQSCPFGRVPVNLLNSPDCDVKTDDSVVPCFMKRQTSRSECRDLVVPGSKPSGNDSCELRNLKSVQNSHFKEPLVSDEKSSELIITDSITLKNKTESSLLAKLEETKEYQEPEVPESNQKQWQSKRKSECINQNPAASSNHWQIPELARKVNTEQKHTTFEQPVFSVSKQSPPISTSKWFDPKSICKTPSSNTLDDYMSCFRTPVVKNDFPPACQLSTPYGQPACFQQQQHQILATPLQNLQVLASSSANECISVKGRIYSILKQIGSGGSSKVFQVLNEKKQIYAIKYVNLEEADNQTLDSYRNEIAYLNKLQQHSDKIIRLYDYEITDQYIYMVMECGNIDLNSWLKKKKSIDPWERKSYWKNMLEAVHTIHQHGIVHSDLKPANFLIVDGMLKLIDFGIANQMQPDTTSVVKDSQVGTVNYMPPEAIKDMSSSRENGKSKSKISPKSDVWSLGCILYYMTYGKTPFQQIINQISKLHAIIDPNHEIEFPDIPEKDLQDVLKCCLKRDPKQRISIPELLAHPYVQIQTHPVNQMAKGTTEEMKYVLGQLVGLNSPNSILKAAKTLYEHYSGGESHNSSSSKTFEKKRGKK

[4] = system: MDA-MB-231 breast cancer cells; assay: Cell growth inhibition, Sulforhodamine B assay, MDA-MB-231; assay type: cell-based; settings: Homo sapiens, 120 h, 5 days culture, SRB assay, read-out: Cell Line GI50 Range MDA-MB-231
Procedure: as §1, §2, §3

HT29 colon cancer cells = assay: Cell growth inhibition, Sulforhodamine B assay, HT29; assay type: cell-based; settings: Homo sapiens, HT-29, 120 h, 5 days culture, SRB assay, read-out: Cell Line GI50 Range HT29
human PLK4 = target: T2, human PLK4 (Homo sapiens, UniProt O00444); assay: PLK4 inhibition assay (indirect ELISA); assay type: biochemical; settings: GST-PLK4 4 nM, 15 μM ATP; read-out: IC50 Ranges PLK4
T2 construct: amino terminal GST fusion of residues 1-391 of human PLK4; made in house; host or cells: E. coli
T2 sequence (O00444 1-391): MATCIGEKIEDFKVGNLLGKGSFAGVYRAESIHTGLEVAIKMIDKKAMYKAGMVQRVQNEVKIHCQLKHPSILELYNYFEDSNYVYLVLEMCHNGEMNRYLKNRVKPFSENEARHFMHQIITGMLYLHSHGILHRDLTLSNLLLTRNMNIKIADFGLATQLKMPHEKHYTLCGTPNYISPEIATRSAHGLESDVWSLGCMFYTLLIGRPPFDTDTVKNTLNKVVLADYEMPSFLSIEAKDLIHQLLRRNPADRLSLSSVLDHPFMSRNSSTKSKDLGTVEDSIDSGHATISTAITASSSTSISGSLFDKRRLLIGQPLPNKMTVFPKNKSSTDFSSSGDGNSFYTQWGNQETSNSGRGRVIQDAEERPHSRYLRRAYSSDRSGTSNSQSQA
Method in brief: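 Compounds were tested either at a single 10 μM dose or across 10-point titrations (typically 0.5 to 0.001 μM), preincubated 15 min with 4 nM GST-PLK4 (human 1-391, dephosphorylated) before 15 μM ATP was added. MBP substrate phosphorylation over 30 min, pH 7.5 HEPES/MgCl2 buffer, read by HRP/TMB ELISA (450 nm). % inhibition vs. high-activity control; IC50 by logistic fit.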

[5] = system: Colon tumor initiating cells (TICs), 12 colon; assay: Colon tumor-initiating cell growth inhibition (Alamar Blue); assay type: cell-based; settings: 216 h, 9 days, read-out: GI50 range 12 colon
Excerpt: Materials and Methods: Non-tissue or tissure cultured treated T-75 flask and 96-well plates were purchased from VWR. Vitamin B-27 supplement, MEM NEAA (minimum essential medium non essential amino acids), sodium pyruvate, L-glutamine, N2 supplement, penicillin-streptomycin and fungizone/amphotericin B were obtained from Invitrogen. Lipid mixture, heparin and EGF were purchased from Sigma; bFGF from BD Biosciences. Colon tumor initiating cells (TICs) were routinely maintained using non-tissue cultured treated T-75 flasks in DMEM:F12 medium containing 0.2XB-27 supplement, 4 ug/ml heparin, 1XMEM NEAA, 1× sodium pyruvate, 1 mM glutamine, 10 pg/ul bFGF, 20 pg/ul EGF, 1×N2 supplement, lipid mixture, penicillin-streptomycin and fungizone/amphotericin B. Ovarian TICs were routinely maintained using tissue cultured treated T-75 flasks in DMEM:F12 medium containing 1XB-27 supplement, 4 ug/ml heparin, 20 pg/ul bFGF, 20 pg/ul EGF and penicillin-streptomycin.
Compounds described herein were dissolved in DMSO and further diluted in cell culture medium for GI50 determination. Colon TICs were trypsinized and seeded into non-tissue cultured treated 96-well plates with 4,000 cells/well. After 24 h, compound was added into the cell culture at different concentrations, and the final concentration of DMSO was adjusted to 0.1%. Cells were then cultured at 37° C. for 9 days. Ovarian TICs were trypsinized and seeded into tissue cultured treated 96-well plates with 1,000 cells/well. After 24 h, compound was added into the cell culture at different concentrations, and the final concentration of DMSO was adjusted to 0.1%. Cells were then cultured at 37° C. for 6 days. Cell viability was assessed by Alamar Blue assay: 10 ul of Alamar Blue was added into each well. After 4 hours incubation at 37° C., fluorescence was recorded at excitation 544 and emission 590. GI50 (Growth inhibition) was calculated using GraphPad Prism 4.0 software.

Aurora B = target: T3, Aurora B (Homo sapiens, UniProt Q96GD4); assay: Aurora B inhibition assay (Z-Lyte); assay type: biochemical; settings: 28 nM Aurora B, 128 μM ATP; read-out: IC50 Ranges Aurora B
T3 construct: purchased Invitrogen PV3970
T3 sequence (Q96GD4 whole entry): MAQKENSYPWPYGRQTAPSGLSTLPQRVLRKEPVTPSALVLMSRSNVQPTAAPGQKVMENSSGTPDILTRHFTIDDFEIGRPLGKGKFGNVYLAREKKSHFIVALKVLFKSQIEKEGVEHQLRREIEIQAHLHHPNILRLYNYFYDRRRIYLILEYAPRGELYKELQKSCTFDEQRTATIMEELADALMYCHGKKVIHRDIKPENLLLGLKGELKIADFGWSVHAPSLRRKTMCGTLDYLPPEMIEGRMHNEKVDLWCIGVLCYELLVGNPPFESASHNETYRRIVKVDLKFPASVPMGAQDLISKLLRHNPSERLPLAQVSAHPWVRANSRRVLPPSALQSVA
Procedure: Aurora B inhibition was determined using the Z-Lyte assay kit from Invitrogen. The assay was performed using the recommended manufacturer's instructions with 128 μM ATP and 28 nM Aurora B (Invitrogen cat #PV3970). The % inhibition values were determined according to the manufacturer's directions and IC50 values were obtained using a non-linear 4 point logistic curve fit (XLfit4, IDBS)

[6] = system: HCT116 colon cancer cells; assay: Cell growth inhibition, Sulforhodamine B assay, HCT116; assay type: cell-based; settings: Homo sapiens, HCT-116, 120 h, 5 days culture, SRB assay, read-out: Cell Line GI50 Range HCT116
[7] = system: PA-1 ovarian cancer cells; assay: Cell growth inhibition, Sulforhodamine B assay, PA-1; assay type: cell-based; settings: 120 h, 5 days culture, SRB assay, read-out: Cell Line GI50 Range PA-1

CCc1cccc(CC)c1NC(=O)Nc1ccc2[nH]nc(-c3ccc(OC4CCN(C)CC4)cc3)c2c1 [Example A46]
≤ 5 µM: GI50 [1] | GI50 [2] | GI50 [3] | IC50 (human TTK) | GI50 [4] | GI50 (HT29 colon cancer cells) | IC50 (human PLK4) | GI50 [5] | IC50 (Aurora B) | GI50 [6]

CC1(O)CCN(c2ccc(-c3n[nH]c4ccc(NC(=O)C(c5ccsc5)N5CCCC5)cc34)cc2)CC1 (centres unmarked) [Example A89, N-(3-(4-(4-hydroxy-4-methylpiperidin-1-yl)phenyl)-1H-indazol-5-yl)-2-(pyrrolidin-1-yl)-2-(thiophen-3-yl)acetamide]
≤ 5 µM: GI50 [7] | GI50 [1] | GI50 [3] | IC50 (human TTK) | GI50 (HT29 colon cancer cells) | IC50 (human PLK4) | GI50 [5] | IC50 (Aurora B) | GI50 [6]

O=CN1CCC(Oc2ccc(-c3n[nH]c4ccc(NC(=O)C(c5ccsc5)N5CCCC5)cc34)cc2)CC1 (centres unmarked) [Example A118]
≤ 5 µM: GI50 [7] | GI50 [1] | GI50 [3] | IC50 (human TTK) | GI50 (HT29 colon cancer cells) | IC50 (human PLK4) | GI50 [5] | IC50 (Aurora B) | GI50 [6]

O=CN1CCC(Oc2ccc(-c3n[nH]c4ccc(C(=O)NC(c5ccccn5)C5CC5)cc34)cc2)CC1 (centres unmarked) [Example A160, N-(cyclopropyl(pyridin-2-yl)methyl)-3-(4-((1-formylpiperidin-4-yl)oxy)phenyl)-1H-indazole-5-carboxamide]
≤ 5 µM: GI50 [7] | GI50 [1] | GI50 [3] | IC50 (human TTK) | GI50 (HT29 colon cancer cells) | IC50 (human PLK4) | GI50 [5] | IC50 (Aurora B) | GI50 [6]

CN1CCC(Oc2ccc(-c3n[nH]c4ccc(C(=O)N[C@H](c5sccc5Cl)C5CC5)cc34)cc2)CC1 [Example A167, (S)—N-((3-chlorothiophen-2-yl)(cyclopropyl)methyl)-3-(4-((1-methylpiperidin-4-yl)oxy)phenyl)-1H-indazole-5-carboxamide]
≤ 5 µM: GI50 [7] | GI50 [1] | GI50 [3] | IC50 (human TTK) | GI50 (HT29 colon cancer cells) | IC50 (human PLK4) | GI50 [5] | IC50 (Aurora B) | GI50 [6]

CC(C)(O)C1CCN(c2ccc(-c3n[nH]c4ccc(C(=O)NC(c5ccccn5)C5CC5)cc34)cc2)CC1 (centres unmarked) [Example A180, N-(cyclopropyl(pyridin-2-yl)methyl)-3-(4-(4-(2-hydroxypropan-2-yl)piperidin-1-yl)phenyl)-1H-indazole-5-carboxamide]
≤ 5 µM: GI50 [7] | GI50 [1] | GI50 [3] | IC50 (human TTK) | IC50 (human PLK4) | GI50 [5] | IC50 (Aurora B) | GI50 [6]

O=CN1CCC(Oc2ccc(-c3n[nH]c4ccc(C(=O)NC(c5ccccc5F)C5CC5)cc34)cc2)CC1 (centres unmarked) [Example A182, N-(cyclopropyl(2-fluorophenyl)methyl)-3-(4-((1-formylpiperidin-4-yl)oxy)phenyl)-1H-indazole-5-carboxamide]
≤ 5 µM: GI50 [7] | GI50 [1] | GI50 [3] | IC50 (human TTK) | IC50 (human PLK4) | GI50 [5] | IC50 (Aurora B) | GI50 [6]

O=C(Nc1ccc2[nH]nc(-c3ccc(OC4CCN(C5COC5)CC4)cc3)c2c1)C(c1ccccc1)C1CC1 (centres unmarked) [Example A185, 2-cyclopropyl-N-(3-(4-((1-(oxetan-3-yl)piperidin-4-yl)oxy)phenyl)-1H-indazol-5-yl)-2-phenylacetamide]
≤ 5 µM: GI50 [7] | GI50 [1] | GI50 [3] | IC50 (human TTK) | IC50 (human PLK4) | GI50 [5] | IC50 (Aurora B) | GI50 [6]

O=CN1CCC(Oc2ccc(-c3n[nH]c4ccc(C(=O)NC(c5ccsc5)C5CC5)cc34)cc2)CC1 (centres unmarked) [Example A186, N-(cyclopropyl(thiophen-3-methyl-3-yl)methyl)-3-(4-((1-formylpiperidin-4-yl)oxy)phen)-1H-indazole-5-carboxamide]
≤ 5 µM: GI50 [7] | GI50 [1] | GI50 [3] | IC50 (human TTK) | IC50 (human PLK4) | GI50 [5] | IC50 (Aurora B) | GI50 [6]

O=C(NC(c1ccccc1)C1CC1)c1ccc2[nH]nc(-c3ccc(OC4CN(C5COC5)C4)cc3)c2c1 (centres unmarked) [Example A190, N-(cyclopropyl(phenyl)methyl)-3-(4-((1-(oxetan-3-yl)azetidin-3-yl)oxy)phenyl)-1H-indazole-5-carboxamide]
≤ 5 µM: GI50 [7] | GI50 [1] | GI50 [3] | IC50 (human TTK) | IC50 (human PLK4) | GI50 [5] | IC50 (Aurora B) | GI50 [6]
